The source of these data is US20070219212A1, “Pyranouidole Derivatives and the Use Thereof for the Treatment of Hepatitis C Virus Infection or Disease” (priority 2004, published 2007).

Where two headings read alike, the source gives them in different places. Bounds are passed on as bounds.

Test [1] addresses T1, NS5B from the BK strain (genotype 1b) (Hepatitis C virus genotype 1b, UniProt P26663).
T1 construct: NS5B from the BK strain (genotype 1b) is expressed in E coli as a protein in which the 21 C-terminal amino acids are replaced; made in house; host or cells: E. coli
The test is described as follows: Hepatitis C polymerase (NS5B, BK strain) inhibition, radioactive filter assay. It is filed as biochemical. The following applies: NS5B BK strain (genotype 1b). From the text:
(§1) The ability of the compounds of the present invention to inhibit Hepatitis C Polymerase was established by the following experimental procedure:
NS5B from the BK strain (genotype 1b) is expressed in E coli as a protein in which the 21 C-terminal amino acids are replaced with a short linker and a hexahistidine tag ([…]). The purified protein is mixed with radioactive nucleotides and allowed to replicate a heteropolymeric RNA substrate, primed by an endogenous short hairpin, resulting in an approximately 760 nt product. The radioactive product is captured on a filter and quantitated after removal of the unincorporated nucleotides.
(§2) • 0.5M Na Phosphate buffer. Per liter, weigh 134 gr Na2HPO4.7H2O, add water to 900 ml. Adjust pH to 7.0 with phosphoric acid. Top off with water to 1 L. • Dilute nucleotides 1:1000 to 10 μM (GTP and CTP) or 1:100 to 100 μM (ATP and UTP) into RNase free water. Procedure: • (1) Compounds 10 μl at […] in 15% dimethylsulfoxide (DMSO) When starting from 100 μg/ml compound stock in 1% DMSO: Dispense 5 μl 30% DMSO per well Dispense 5 μl compound (100 μg/ml) per well. When starting from 50 μg/ml compound stock in 15% DMSO: Add 10 μl compound per well.
(§3) Add 20 μl enzyme mix into each well of the assay plate. Incubate compound and enzyme at room temperature for 15 minutes • (3) Template mix—prepare ahead
(§4) Spin down a tube of RNA (5 μg/tube stored in 75% ethanol and 0.3 M sodium acetate) in a microcentrifuge for 20 minutes at 4° C. One tube is enough for 1-1.5 plates. Remove as much ethanol from the tube as possible by inverting the tube. Be gentle, pellet RNA may not adhere to the tube. Vacuum dry the RNA. Resuspend the RNA by adding 1 ml of DEPC water, close the cap of the tube tightly. To dissolve RNA, incubate RNA solution on ice for ˜60 minutes and gently vortex. Spin briefly to ensure all RNA solution is down to the bottom of the tube before opening cap. Gently transfer RNA solution into a 5 ml or larger tube. Add another 3 ml of DEPC water (total 4 ml of volume).
(§5) Add the following volumes of reagents
(§6) Add 20 μl template mix per reaction (i.e. 20 ng of pOF per reaction or ˜3 nM) • (4) Incubate reaction at room temperature (22-25° C.) for 2 hours. • (5) Stop reaction by adding 50 μl of 170 mM EDTA.
(§7) Final concentration of EDTA is 85 mM. • (6) Prewet filters of Millipore multiscreen assay plate by adding 200 μl of 0.5 M sodium phosphate buffer, pH 7.0 into each well. Let stand at room temperature for 2-3 minutes. • (7) Place the multiscreen filter plate onto a Millipore Manifold and turn on vacuum to allow buffer to flow through. Turn off vacuum. Transfer 80 μl of the reaction product into each well of the filter plate. Let stand for 2-3 minutes. Turn on vacuum to filter reaction product. • (8) Turn off vacuum. Add 200 μl of 0.5 M sodium phosphate buffer, pH 7.0 into each well to wash filter. Turn on vacuum.
(§8) Repeat step (8) three more times. • (9) Remove polypropylene bottom. Spot dry filter at the bottom with paper towel. Air dry filter plate on a bench for 1 hour. Add 40 μl Super Mix scintillant. Seal top of the plate with a tape. Place plate into a Packard carrier or micro-beta carrier. • (10) Count plate using a Packard Topcount or micro-beta counter. Count (for example using Program 10) for ^33P in Top count or ^33P program in micro-beta.
(§9) See, Ferrari et al. 1999. J. Virology 73:1649-1654: “Characterization of soluble Hepatitis C virus RNA-dependent RNA polymerase expressed in E. coli and Takamizawa et al. 1991” and J. Virology 65:1105-1113: “Structure and characterization of the Hepatitis C virus genome isolated from human carriers,” both references are hereby incorporated by reference.

Test [2] addresses BB7 RNA-dependent RNA polymerase hepatitis C virus protein (Con1 HCV sequence) (Hepatitis C virus genotype 1b, UniProt Q9WMX2). The test is described as follows: Hepatitis C polymerase (BB7) inhibition. It is filed as biochemical.
Excerpt: For purposes of this invention, the term “BB7” denotes an RNA-dependent RNA polymerase hepatitis C virus protein sequence which is derived from HCV replicon. A discussion of BB7 and related technology can be found in Blight, K. et al. (2000) Science 290:1972-1974. BB7 can be licensed from Apath, LLC (893 North Warson Road, Saint Louis Mo. 63141, USA). BB7 is also referred to as Con1 HCV sequence and discussions of Con1 can be found in the following references: Lohmann, V. et al. (1999) Science 285:110-113; Pietschmann, T. et al. (2001) J. Virol. […]:1252-1264; Lohmann, V. et al. (2001) J. Virol. 75:1437-1449.
as §1, §2, §3, §4, §5, §6, §7, §8, §9

The mark [3] stands for this setting: BB7 (Con1) NS5B, read-out: BB7 IC50.

T1 sequence (P26663 2420-2989): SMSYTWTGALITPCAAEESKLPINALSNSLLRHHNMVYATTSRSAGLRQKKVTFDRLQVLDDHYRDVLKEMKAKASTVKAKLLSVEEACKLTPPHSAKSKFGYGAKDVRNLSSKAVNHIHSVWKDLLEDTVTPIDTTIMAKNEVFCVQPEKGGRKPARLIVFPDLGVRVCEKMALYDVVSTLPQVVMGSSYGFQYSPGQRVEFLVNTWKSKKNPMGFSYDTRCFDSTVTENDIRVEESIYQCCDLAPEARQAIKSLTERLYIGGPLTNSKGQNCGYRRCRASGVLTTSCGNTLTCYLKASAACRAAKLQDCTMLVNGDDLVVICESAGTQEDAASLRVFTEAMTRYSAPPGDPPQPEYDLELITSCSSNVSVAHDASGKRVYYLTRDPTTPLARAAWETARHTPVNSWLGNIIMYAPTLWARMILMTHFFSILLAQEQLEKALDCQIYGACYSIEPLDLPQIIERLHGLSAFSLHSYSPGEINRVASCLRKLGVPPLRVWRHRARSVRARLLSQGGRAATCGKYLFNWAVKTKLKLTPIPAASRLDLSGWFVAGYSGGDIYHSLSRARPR
BB7 RNA-dependent RNA polymerase hepatitis C virus protein (Con1 HCV sequence), sequence (Q9WMX2 2420-3010): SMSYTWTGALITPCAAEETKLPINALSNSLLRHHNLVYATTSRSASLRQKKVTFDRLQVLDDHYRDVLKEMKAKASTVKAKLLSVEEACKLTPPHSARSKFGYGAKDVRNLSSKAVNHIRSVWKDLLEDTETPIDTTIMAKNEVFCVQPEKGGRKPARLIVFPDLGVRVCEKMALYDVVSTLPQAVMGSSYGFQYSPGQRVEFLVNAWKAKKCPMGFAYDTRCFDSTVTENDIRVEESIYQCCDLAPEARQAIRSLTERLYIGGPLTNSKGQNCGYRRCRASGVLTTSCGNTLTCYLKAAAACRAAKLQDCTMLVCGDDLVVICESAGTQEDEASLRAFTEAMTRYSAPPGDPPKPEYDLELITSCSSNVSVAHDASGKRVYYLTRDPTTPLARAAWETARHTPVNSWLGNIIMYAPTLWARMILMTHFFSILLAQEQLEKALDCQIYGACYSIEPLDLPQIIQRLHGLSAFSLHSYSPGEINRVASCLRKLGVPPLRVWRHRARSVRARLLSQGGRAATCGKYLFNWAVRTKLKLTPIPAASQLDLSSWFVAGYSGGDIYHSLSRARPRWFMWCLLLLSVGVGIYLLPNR

The IC50 is the point on the concentration scale where inhibition reaches its midpoint. Consider `CCC[C@@]1(CC(=O)O)OCCc2c1[nH]c1c(C)c(OCc3cc(C)on3)cc(C#N)c21` [Example 57], for which the IC50 is more than 5000 nM in test [1] and 500 to 5000 nM in test [2].
Taken in the same sequence, the figures for `CCCC1(CC(=O)O)OCCc2c1[nH]c1c(C)c(OCc3cc[n+]([O-])cc3)cc(C#N)c21` (stereo not shown) [Example 71] were less than 500 nM and less than 500 nM.
Taken in the same sequence, the figures for `CCCC1(CC(=O)O)OCCc2c1[nH]c1c(C)c(OCc3cnccn3)cc(C#N)c21` (stereo not shown) [Example 64] were less than 500 nM and less than 500 nM.
Taken in the same sequence, the figures for `CCCC1(CC(=O)O)OCCc2c1[nH]c1c(C)c(OCc3cc(C)no3)cc(C#N)c21` (stereo not shown) [Example 79] were less than 500 nM and less than 500 nM.
As to `CCCC1(CC(=O)O)OCCc2c1[nH]c1c(C)c(OCc3cccnc3N)cc(C#N)c21` (stereo not shown) [Example 51], the IC50 in test [1] and in test [2] was less than 500 nM in each case.
Take `CCCC1(CC(=O)O)OCCc2c1[nH]c1c(C)c(OCc3nc(C)ccc3OC)cc(C#N)c21` (stereo not shown) [Example 86]: the IC50 in test [1] and in test [2] was less than 500 nM each time.
With `CCCC1(CC(=O)O)OCCc2c1[nH]c1c(C)c(OCc3cc(C)[nH]n3)cc(C#N)c21` (stereo not shown) [Example 128], the IC50 in test [1] and in test [2] was less than 500 nM in each case.
With `CCCC1(CC(=O)O)OCCc2c1[nH]c1c(C)c(OCCCS(C)(=O)=O)cc(C#N)c21` (stereo not shown) [Example 143], the IC50 in test [1] and in test [2] (setting [3]) was less than 500 nM each time.
As for `CCCC1(CC(=O)O)OCCc2c1[nH]c1c(C)c(OCC(C)=NOC)cc(C#N)c21` (stereo not shown) [Example 100], the IC50 in test [1] and in test [2] was less than 500 nM in each case.
As to `CCCC1(CC(=O)O)OCCc2c1[nH]c1c(C)c(OCc3ccncc3)cc(C#N)c21` (stereo not shown) [Example 38], the IC50 in test [1] is less than 500 nM; in test [2] (read-out: BB7 IC50, BB7 (Con1) NS5B), less than 500 nM.
With `CC#CCOCc1cc(C#N)c2c3c([nH]c2c1C)C(CCC)(CC(=O)O)OCC3` (stereo not shown) [Example 11, (7-But-2-ynyloxymethyl-5-cyano-8-methyl-1-propyl-1,3,4,9-tetrahydro-pyrano[3,4-b]indol-1-yl)-acetic acid], the IC50 in test [1] and in test [2] was 500 to 5000 nM throughout.
Consider `CCCC1(CC(=O)O)OCCc2c1[nH]c1c(C)c(OC(C)c3cc(C)n(C)n3)cc(C#N)c21` (stereo not shown) [Example 84], for which the IC50 in test [1] and in test [2] (setting [3]) was less than 500 nM each time.
For `CCCC1(CC(=O)O)OCCc2c1[nH]c1c(C)c(OCc3ccc(C)nc3)cc(C#N)c21` (stereo not shown) [Example 70], the IC50 in test [1] and in test [2] was less than 500 nM each time.
In the case of `CCC[C@]1(CC(=O)O)OCCc2c1[nH]c1c(C)c(OCc3nnc(C)s3)cc(C#N)c21` [Example 29, (R)-[5-Cyano-8-methyl-7-(5-methyl-[1,3,4]thiadiazol-2-ylmethoxy)-1-propyl-1,3,4,9-tetrahydro-pyrano[3,4-b]indol-1-yl]-acetic acid], the IC50 in test [1] and in test [2] was less than 500 nM each time.
In the case of `CCCC1(CC(=O)O)OCCc2c1[nH]c1c(C)c(OC[C@H]3CCC(=O)N3)cc(C#N)c21` (stereo partly shown) [Example 101], the IC50 in test [1] and in test [2] was less than 500 nM each time.
Consider `CCCC1(CC(=O)O)OCCc2c1[nH]c1c(C)c(OCc3nccs3)cc(C#N)c21` (stereo not shown) [Example 60], for which the IC50 in test [1] and in test [2] was less than 500 nM in each case.
For `CCCC1(CC(=O)O)OCCc2c1[nH]c1c(C)c(OCc3ccncc3)cc(C#N)c21` (stereo not shown) [Example 24, [5-Cyano-8-methyl-1-propyl-7-(pyridin-4-ylmethoxy)-1,3,4,9-tetrahydro-pyrano[3,4-b]indol-1-yl]-acetic acid], the IC50 in test [1] and in test [2] was less than 500 nM throughout.
Take `CCCC1(CC(=O)O)OCCc2c1[nH]c1c(C)c(OCc3nnc(C(C)(C)C)s3)cc(C#N)c21` (stereo not shown) [Example 87]: the IC50 in test [1] and in test [2] was less than 500 nM throughout.
For `CCC[C@]1(CC(=O)O)OCCc2c1[nH]c1c(C)c(OC[C@@H](C)OC)cc(C#N)c21` [Example 28, (1R,2′R)-[5-Cyano-7-(2-methoxy-propoxy)-8-methyl-1-propyl-1,3,4,9-tetrahydro-pyrano[3,4-b]indol-1-yl]-acetic acid], the IC50 in test [1] and in test [2] was less than 500 nM each time.
For the molecule `CCCC1(CC(=O)O)OCCc2c1[nH]c1c(C)c(OCC3CCS(=O)(=O)CC3)cc(C#N)c21` (stereo not shown) [Example 107], the IC50 in test [1] and in test [2] was less than 500 nM throughout.
With `CCCC1(CC(=O)O)OCCc2c1[nH]c1c(C)c(COc3cccc(F)c3)cc(C#N)c21` (stereo not shown) [Example 21, [5-Cyano-7-(3-fluoro-phenoxymethyl)-8-methyl-1-propyl-1,3,4,9-tetrahydro-pyrano[3,4-b]indol-1-yl]-acetic acid], the IC50 in test [1] and in test [2] was less than 500 nM throughout.
As for `CCCC1(CC(=O)O)OCCc2c1[nH]c1c(C)c(COCC3CCC3)cc(C#N)c21` (stereo not shown) [Example 9, (5-Cyano-7-cyclobutylmethoxymethyl-8-methyl-1-propyl-1,3,4,9-tetrahydro-pyrano[3,4-b]indol-1-yl)-acetic acid], the IC50 in test [1] and in test [2] was 500 to 5000 nM throughout.
As to `CCCC1(CC(=O)O)OCCc2c1[nH]c1c(C)c(OCCSC)cc(C#N)c21` (stereo not shown) [Example 50], the IC50 in test [1] and in test [2] was less than 500 nM each time.
Consider `CCCC1(CC(=O)O)OCCc2c1[nH]c1c(C)c(OCCN(C)Cc3ccccc3)cc(C#N)c21` (stereo not shown) [Example 114], for which the IC50 in test [1] and in test [2] was less than 500 nM in each case.
In the case of `CCCC1(CC(=O)O)OCCc2c1[nH]c1c(C)c(COC3CCC3)cc(C#N)c21` (stereo not shown) [Example 6, (5-Cyano-7-cyclobutoxymethyl-8-methyl-1-propyl-1,3,4,9-tetrahydro-pyrano[3,4-b]indol-1-yl)-acetic acid], the figures for the IC50 in test [1] and in test [2] were 500 to 5000 nM and less than 500 nM, respectively.
On to `CCCC1(CC(=O)O)OCCc2c1[nH]c1c(C)c(OCc3cc(C4CC4)on3)cc(C#N)c21` (stereo not shown) [Example 127], for which the IC50 in test [1] and in test [2] (setting [3]) was less than 500 nM throughout.
`CCCC1(CC(=O)O)OCCc2c1[nH]c1c(C)c(COC3CCCCC3)cc(C#N)c21` (stereo not shown) [Example 7, (5-Cyano-7-cyclohexyloxymethyl-8-methyl-1-propyl-1,3,4,9-tetrahydro-pyrano[3,4-b]indol-1-yl)-acetic acid]: the IC50 in test [1] and in test [2] was 500 to 5000 nM throughout.
Consider `CCCC1(CC(=O)O)OCCc2c1[nH]c1c(C)c(OCC3CCSCC3)cc(C#N)c21` (stereo not shown) [Example 106], for which the IC50 in test [1] and in test [2] was less than 500 nM in each case.
In the case of “[5-Cyano-8-methyl-1-propyl-7-(tetrahydro-pyran-4-ylmethoxymethyl)-1,3,4,9-tetrahydro-pyrano[3,4-b]indol-1-yl]-acetic acid [Example 12]”, the IC50 in test [1] and in test [2] (setting [3]) was 500 to 5000 nM each time.
